In the supplement of paper PMC11061612:

What was measured:
Test in all cases: combination Emax (second highest fraction inhibited in the dose matrix, 72 h); higher = more inhibition; extreme values may be limits of the assay
WIL2-NS (Non-Cancerous) = test system: WIL2-NS (Non-Cancerous)
Method in brief: (§1)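 Cell lines grown in DMEM/F12 or RPMI with 10% FBS were plated in 1536-well plates and held 24 hours at 37°C, 5% CO2 before 72 hours of exposure to two-drug dose matrices, with DMSO typically at 0.2%. CellTiter-Glo 2.0 luminescence gave viability, which was converted to inhibition. Vehicle wells were set to 0 and blank wells to 1. Combination Emax is the second-highest inhibition in the matrix, and Bliss excess is the observed combination effect minus the expected EA + EB − EA·EB, where EA and EB are the single-agent effects.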

ES1 (Ewing's Sarcoma) = test system: ES1 (Ewing's Sarcoma)
Method in brief: as §1

NCI-H2818 (Mesothelioma) = test system: NCI-H2818 (Mesothelioma)
Method in brief: as §1

MEL-JUSO (Melanoma) = test system: MEL-JUSO (Melanoma)
Method in brief: as §1

U251 (Low Grade Glioma) = test system: U251 (Low Grade Glioma)
Method in brief: as §1

TC-71 (Ewing's Sarcoma) = test system: TC-71 (Ewing's Sarcoma)
Method in brief: as §1

[1] = test system: P12-ICHIKAWA (T-Lymphoblastic Leukemia)
Method in brief: as §1

LN-18 (Glioblastoma) = test system: LN-18 (Glioblastoma)
Method in brief: as §1

[2] = test system: TE-6 (Esophageal Squamous Cell Carcinoma)
Method in brief: as §1

WM-115 (Melanoma) = test system: WM-115 (Melanoma)
Method in brief: as §1

[3] = test system: SW837 (Colorectal Carcinoma)
Method in brief: as §1

[4] = test system: HDQ-P1 (Breast Carcinoma)
Method in brief: as §1

[5] = test system: K-562 (Chronic Myelogenous Leukemia)
Method in brief: as §1

[6] = test system: NCI-H847 (Small Cell Lung Carcinoma)
Method in brief: as §1

[7] = test system: KYSE-180 (Esophageal Squamous Cell Carcinoma)
Method in brief: as §1

[8] = test system: DiFi (Colorectal Carcinoma)
Method in brief: as §1

ES8 (Ewing's Sarcoma) = test system: ES8 (Ewing's Sarcoma)
Method in brief: as §1

[9] = test system: EVSA-T (Breast Carcinoma)
Method in brief: as §1

[10] = test system: MKN28 (Gastric Carcinoma)
Method in brief: as §1

[11] = test system: GR-ST (B-Lymphoblastic Leukemia)
Method in brief: as §1

| Compound | combination Emax (WIL2-NS (Non-Cancerous)) | combination Emax (ES1 (Ewing's Sarcoma)) | combination Emax (NCI-H2818 (Mesothelioma)) | combination Emax (MEL-JUSO (Melanoma)) | combination Emax (U251 (Low Grade Glioma)) | combination Emax (TC-71 (Ewing's Sarcoma)) | combination Emax [1] | combination Emax (LN-18 (Glioblastoma)) | combination Emax [2] | combination Emax (WM-115 (Melanoma)) | combination Emax [3] | combination Emax [4] | combination Emax [5] | combination Emax [6] | combination Emax [7] | combination Emax [8] | combination Emax (ES8 (Ewing's Sarcoma)) | combination Emax [9] | combination Emax [10] | combination Emax [11] |
| --- | --- | --- | --- | --- | --- | --- | --- | --- | --- | --- | --- | --- | --- | --- | --- | --- | --- | --- | --- | --- |
| CN(C)CCCOc1ccc(-c2ccc3ncc4c(c3c2)n(C2CCOCC2)c(=O)n4C)cn1 [AZD0156] + O=C(c1cc(Cc2n[nH]c(=O)c3ccccc23)ccc1F)N1CCN(C(=O)C2CC2)CC1 [Olaparib] (first compound max 3 µM, partner max 3 µM) | 0.6 | 0.834 | 0.38 | 0.115 | 0.294 | 0.804 | 0.611 | 0.203 | 0.417 | 0.356 | 0.185 | 0.371 | 0.171 | 0.64 | 0.233 | 0.223 | 0.877 | 0.234 | 0.0496 | 0.6 |
| CN(CCO)CC[C@H](CSc1ccccc1)Nc1ccc(S(=O)(=O)NC(=O)c2ccc(N3CCC([C@@H](O)c4ccccc4-c4ccc(Cl)cc4)CC3)cc2)cc1S(=O)(=O)C(F)(F)F [AZD4320] + C1CN(CCC1(C(=O)N[C@@H](CCO)C2=CC=C(C=C2)Cl)N)C3=NC=NC4=C3C=CN4 [Capivasertib] (first compound max 1 µM, 7x7, partner max 3 µM) | 0.535 | 0.246 | 0.184 | 0.139 | 0.181 | 0.544 | 1 | 0.298 | 0.633 | 0.829 | 0.104 | 0.584 | 0.129 | 1 | 0.32 | 0.804 | 0.493 | 0.924 | – | 0.402 |
| CN(CCO)CC[C@H](CSc1ccccc1)Nc1ccc(S(=O)(=O)NC(=O)c2ccc(N3CCC([C@@H](O)c4ccccc4-c4ccc(Cl)cc4)CC3)cc2)cc1S(=O)(=O)C(F)(F)F [AZD4320] + CCN(CCO)CCCOc1ccc2c(Nc3cc(CC(=O)Nc4cccc(F)c4)[nH]n3)ncnc2c1 [AZD2811] (first compound max 1 µM, 7x7, partner max 1 µM) | 0.311 | 0.613 | 0.191 | 0.446 | 0.42 | – | 1 | 0.584 | 0.524 | 0.453 | 0.508 | 0.849 | 0.333 | 1 | 0.181 | 0.882 | 1 | 0.704 | 0.184 | 0.151 |
| Cc1c2c(nn1C)CSCc1cc(n(C)n1)CSc1cc(c3ccccc3c1)OCCCc1c(C(=O)O)n(C)c3c-2c(Cl)ccc13 [AZD5991] + C=CCn1c(=O)c2cnc(Nc3ccc(N4CCN(C)CC4)cc3)nc2n1-c1cccc(C(C)(C)O)n1 [AZD1775] (first compound max 1 µM, partner max 1 µM) | 0.963 | – | 0.519 | 0.749 | 0.423 | 0.578 | 1 | 0.602 | 0.773 | 0.34 | 0.406 | 0.579 | 0.747 | 1 | 0.95 | 0.856 | 0.717 | 1 | 0.572 | 0.791 |
| Cc1cc2ncnn2cc1Nc1ncc2c(n1)n(C1CCOCC1)c(=O)n2C [AZD7648] + O=C(c1cc(Cc2n[nH]c(=O)c3ccccc23)ccc1F)N1CCN(C(=O)C2CC2)CC1 [Olaparib] (first compound max 10 µM, 7x7, partner max 10 µM) | 0.461 | 0.686 | 0.328 | 0.104 | 0.185 | 0.6 | – | 0.132 | 0.328 | 0.229 | 0.0487 | 0.41 | 0.176 | 0.853 | 0.0923 | 0.258 | 0.814 | 0.253 | 0.103 | 0.472 |
| COc1cccc2c1C(=O)c1c(O)c3c(c(O)c1C2=O)C[C@@](O)(C(=O)CO)C[C@@H]3O[C@H]1C[C@H](N)[C@H](O)[C@H](C)O1 [Doxorubicin] + Cc1cc2ncnn2cc1Nc1ncc2c(n1)n(C1CCOCC1)c(=O)n2C [AZD7648] (first compound max 1 µM, 7x7, partner max 10 µM) | 1 | 1 | 0.694 | 0.328 | 0.859 | 0.965 | – | 0.33 | 0.322 | 0.678 | 0.516 | 0.682 | 0.823 | 0.961 | 0.858 | 0.701 | 0.935 | 0.787 | 0.503 | 0.69 |
| COc1cccc(OCCCN)c1-c1cc(Nc2cnc(C#N)cn2)n[nH]1 [Prexasertib] + C=CCn1c(=O)c2cnc(Nc3ccc(N4CCN(C)CC4)cc3)nc2n1-c1cccc(C(C)(C)O)n1 [AZD1775] (first compound max 1 µM, partner max 1 µM) | 1 | 1 | 0.359 | 0.747 | 0.783 | 1 | – | 0.807 | 0.767 | 0.614 | 0.79 | 0.856 | 0.98 | 1 | 0.983 | 0.92 | 0.945 | 0.532 | 0.725 | 0.82 |
| COc1cccc(OCCCN)c1-c1cc(Nc2cnc(C#N)cn2)n[nH]1 [Prexasertib] + CN(C)CCCOc1ccc(-c2ccc3ncc4c(c3c2)n(C2CCOCC2)c(=O)n4C)cn1 [AZD0156] (first compound max 1 µM, 7x7, partner max 1 µM) | 1 | 1 | 0.282 | 0.751 | 0.613 | 0.977 | – | 0.752 | 0.567 | 0.566 | 0.803 | 0.538 | 0.979 | 1 | 0.983 | 0.878 | 0.837 | 0.252 | 0.597 | 0.822 |
| COc1cccc(OCCCN)c1-c1cc(Nc2cnc(C#N)cn2)n[nH]1 [Prexasertib] + C[C@@H]1COCCN1C2=NC(=NC(=C2)C3(CC3)[S@](=N)(=O)C)C4=C5C=CNC5=NC=C4 [AZD6738] (first compound max 1 µM, 7x7, partner max 10 µM) | 1 | 1 | 0.387 | 0.695 | 0.652 | 0.962 | – | 0.797 | 0.695 | 0.59 | 0.752 | 0.597 | 0.985 | 1 | 0.989 | 0.881 | 0.798 | 0.343 | 0.597 | 0.829 |
| COc1cccc(OCCCN)c1-c1cc(Nc2cnc(C#N)cn2)n[nH]1 [Prexasertib] + Cc1cc2ncnn2cc1Nc1ncc2c(n1)n(C1CCOCC1)c(=O)n2C [AZD7648] (first compound max 1 µM, 7x7, partner max 10 µM) | 1 | 1 | 0.344 | 0.712 | 0.622 | 0.945 | – | 0.75 | 0.554 | 0.59 | 0.749 | 0.612 | 0.948 | 1 | 0.974 | 0.864 | 0.842 | 0.358 | 0.575 | 0.806 |
| COc1cccc(OCCCN)c1-c1cc(Nc2cnc(C#N)cn2)n[nH]1 [Prexasertib] + O=C(c1cc(Cc2n[nH]c(=O)c3ccccc23)ccc1F)N1CCN(C(=O)C2CC2)CC1 [Olaparib] (first compound max 1 µM, 7x7, partner max 10 µM) | 1 | 1 | 0.285 | 0.686 | 0.733 | 0.987 | – | 0.807 | 0.476 | 0.556 | 0.645 | 0.702 | 0.891 | 1 | 0.983 | 0.924 | 0.906 | 0.433 | 0.46 | 0.808 |
| COc1cc2c(cc1OCCCCCOc1cc3c(cc1OC)C(=O)N1C=C(C)C[C@H]1C=N3)N=C[C@@H]1CC(C)=CN1C2=O [SG3199] + O=C(c1cc(Cc2n[nH]c(=O)c3ccccc23)ccc1F)N1CCN(C(=O)C2CC2)CC1 [Olaparib] (first compound max 0.001 µM, 7x7, partner max 10 µM) | 0.247 | 0.689 | 0.161 | 0.0923 | 0.183 | 0.518 | – | 0.132 | 0.117 | 0.206 | 0.0782 | 0.153 | 0.134 | 0.509 | 0.0586 | 0.107 | 0.828 | 0.276 | 0.0709 | 0.359 |
| CCc1c2c(nc3ccc(O)cc13)-c1cc3c(c(=O)n1C2)COC(=O)[C@]3(O)CC [SN-38] + CN(C)CCCOc1ccc(-c2ccc3ncc4c(c3c2)n(C2CCOCC2)c(=O)n4C)cn1 [AZD0156] (first compound max 0.3 µM, 7x7, partner max 1 µM) | 1 | 1 | 0.499 | 0.263 | 0.897 | 1 | – | 0.617 | 0.313 | 0.43 | 0.343 | 0.702 | 0.752 | 0.976 | 0.411 | 0.669 | 0.984 | 0.421 | 0.451 | 0.749 |
